Laboratory results as given in patent US20240009223A1, “6-THIO-2'-DEOXYGUANOSINE (6-THIO-DG) RESULTS IN TELOMERASE DEPENDENT TELOMERE DYSFUNCTION AND CELL DEATH IN VARIOUS MODELS OF THERAPY-RESISTANT CANCER CELLS” (The Board of Regents of The University of Texas System, priority 2016, published 2024).

Columns and labels:
[1] = tested on: panel of 12 cancer cell lines of 9 different histological origins; assay: Long-term cell growth assay (crystal violet), 12 non-melanoma cancer cell lines; type: cell-based; details: 9-12 days; in most cases
Description: (§1) FIGS. 1A-1B show long-term cell growth assay of 12 non-melanoma cancer cell lines (FIG. 1A) and 12 BRAF-mutant melanoma cell lines (FIG. 1B) that were treated with 6-thio-dG (6dG) or BIBR 1532 (BIBR) at indicated doses for 9 to 12 days.
Treatment of a Variety of Cancer Cell Lines with Telomerase-directed 6-thio-dG Impairs Cell Viability. […] To further confirm the inhibitory effect of 6-thio-dG, a panel of 12 cancer cell lines of 9 different histological origins was treated with 6-thio-dG for 9-12 days. As the control for 6-thio-dG, a known telomerase inhibitor, BIBR 1532, was also included. In most cases, these cancer cell lines were sensitive to 6-thio-dG administered at a dose of 2.5 μM and higher (FIG. 1A).

[2] = tested on: 12 BRAF-mutant human metastatic melanoma cell lines; assay: Long-term cell growth assay, 12 BRAF-mutant melanoma cell lines; type: cell-based; details: 9-12 days
Description: as §1
Given the prevalence of TERT promoter mutations in melanoma and the potency of telomerase-directed 6-thio-dG therapy in inhibiting cell proliferation of telomerase activity-positive lung and colon cancer cells, the efficacy of 6-thio-dG in the BRAF-mutant melanoma subtype was tested. To that end, a panel of 12 BRAF-mutant human metastatic melanoma cell lines were treated with 6-thio-dG and BIBR 1532 for 9-12 days, respectively.

[3] = tested on: 12 BRAF-mutant melanoma cell lines; assay: FACS analysis of apoptosis and cell death (PSVue 643/PI), 12 BRAF-mutant melanoma cell lines; type: cell-based, human
Description: FIGS. 3A-3E show long-term cell growth assay of 16 BRAF-mutant melanoma cell lines that were treated with 6-thio-dG or PLX4720 at indicated doses for 12 days (FIG. 3A). […] Cells were then harvested and co-stained with PSVue643 and Propidium iodide (PI). The average of 2 biological replicates are representative of 2 independent experiments; SA-β-gal staining of 4 BRAF-mutant melanoma cell lines treated with 6-thio-dG at 5 μM for 9 days (FIG. 3D).
(§2) FACS Analysis of Apoptosis and Cell Death. Adherent cells were harvested with 0.05% Trypsin-EDTA, pooled with floating cells and then washed once with 1×DPBS. Cells were then pelleted and stained with PSVue® 643 at 0.5 μM and Propidium iodide at 50 ug/ml diluted in TES buffer for 5 min in the dark. Cells were then immediately subjected to FACS analysis using a BD LSR II flow cytometer and at least 5,000 cells per sample were acquired.
In a time-course experiment, it was shown that the induction of apoptosis started to occur as early as 48 hour post-treatment (FIG. 3C).

[4] = tested on: normal epidermal melanocytes; assay: FACS analysis of apoptosis and cell death, normal melanocytes; type: cell-based; details: 120 hours
Description: (§3) Cells were then harvested and co-stained with PSVue643 and Propidium iodide (PI). Representative samples of 2 independent experiments.
as §2

[5] = tested on: normal epidermal keratinocytes; assay: FACS analysis of apoptosis and cell death, normal keratinocytes; type: cell-based; details: 120 hours
Description: as §3, §2

[6] = tested on: 4 BRAF-mutant melanoma cell lines; assay: SA-β-gal staining (senescence); type: cell-based, human; details: 5 μM for 9 days
[7] = tested on: PLK1, PDGFRβ, ARID1A and AXL in A375, UACC-903 and WM9; assay: RPPA of 3 BRAF-mutant melanoma cell lines; type: cell-based, human; details: 120 hours
[8] = tested on: LOX-IMVI BR cells; assay: FACS analysis of apoptosis and cell death, LOX-IMVI BR; type: cell-based, human; details: 120 hours
Description: as §2

[9] = tested on: ten melanoma cell lines that acquired resistance to PLX4720 and WM1366 MR; assay: Long-term cell growth assay, MAPKi-resistant melanoma cell lines; type: cell-based, human; details: 12 days
[10] = tested on: WM9 BR xenografts; assay: WM9 BR xenograft tumor volume; type: in vivo, human; details: WM9 BR xenografts in mice
Description: (§4) Melanoma Xenotransplantation and In vivo Studies. 100,000 melanoma cells were harvested from cell culture and re-suspended in culture medium and Matrigel at a 1:1 ratio. Cells were subcutaneously injected into mice, which were treated with indicated inhibitors when the tumor volume reached 100 mm^3. Mice were sacrificed at the end time point and solid tumors were collected. All animal experiments were performed in accordance with Wistar IACUC protocol 112330 in NOD.[…] 1 Wjl/SzJ mice.

[11] = tested on: LOX-IMVI BR xenografts; assay: LOX-IMVI BR xenograft tumor volume; type: in vivo, human; details: LOX-IMVI BR xenografts in mice
Description: as §4

[12] = tested on: 499 and JB2; assay: Long-term cell growth assay, therapy-resistant B16 derivatives; type: cell-based, mouse; details: 12 days
Text: In addition to therapy-resistant human melanoma, there was access to two derivatives of the mouse melanoma cell line B16. The first was 499 cell line that was resistant to radiation therapy and anti-CTLA-4; and the second cell line was JB2 that differs from 499 in which PD-L1 was knocked out (Benci et al., 2016).

[13] = tested on: AXL, ARID1A and PLK1 in 13-456-5-3 xenografts; assay: RPPA of 13-456-5-3 xenografts; type: in vivo, human
Text: (§5) Analysis of Gene Expression Microarray Data and Reverse Phase Protein Array (RPPA) Data. The raw data of gene expression microarrays generated from Illumina Chips were normalized, background-corrected and summarized using the R package “lumi”. […] To reduce false positives, the unexpressed probes were removed. The R package “limma” was employed for gene differential expression analysis, followed by multiple test correction by the Benjamini and Hochberg procedure. […] The inventors also conducted GSEA as previously reported. For GSEA, they analyzed gene sets obtained from the Molecular Signatures Database (world-wide-web at broadinstitute.org/gsea/msigdb/). The same differential expression analysis method was applied to RPPA data.

[14] = tested on: ARID1A and S6 signaling axis in WM4265-2 xenografts; assay: RPPA of WM4265-2 xenografts; type: in vivo, human
Text: as §5

[15] = tested on: ARID1A in G43 cells; assay: RPPA of G43 cells treated in vitro; type: cell-based, mouse
Text: as §5

[16] = tested on: AXL, IGF-IRβ and VEGFR in G43 tumors; assay: RPPA of G43 tumors treated in vivo; parameters: species or system mouse
Text: as §5

[17] = tested on: colon cancer cell line, HCT-116; details: Mender et al., 2015; cited from earlier work

Nc1nc2c(ncn2[C@H]2C[C@H](O)[C@@H](CO)O2)c(=S)[nH]1 [6-thio-dG, 6-thio-2′-deoxyguanosine]
dose at which the cell lines were sensitive (long-term cell growth) [1]: ≥ 2.5 µM
anti-proliferative effect [2]: anti-proliferative effect
apoptosis and cell death (PSVue 643+ cells) ([3]; 5 days (120 hours)): significantly induced apoptosis and cell death in 9 of 12
sensitivity among all 12 BRAF-mutant melanoma cell lines ([3]; A375 melanoma cells, 5 days): most sensitive
cell viability of normal cells [4]: did not impair the cell viability
cell viability of normal cells [5]: did not impair the cell viability
cellular senescence (SA-β-gal staining) in surviving cells [6]: triggered the induction of cellular senescence
PLK1, PDGFRβ, ARID1A and AXL at the protein level (RPPA) [7]: significantly down-regulated
apoptosis and cell death (PSVue 643+ cells) [8]: significantly induced apoptosis and cell death
cell viability (long-term cell growth) [9]: impaired their viabilities
in vivo growth of xenografts [10]: significantly impaired the in vivo growth
in vivo growth of xenografts [11]: significantly impaired the in vivo growth
in vitro cell proliferation [12]: markedly inhibited in vitro cell proliferation
therapy-resistant markers AXL, ARID1A and PLK1 (RPPA) [13]: down-regulated
ARID1A and S6 signaling axis (RPPA) [14]: down-regulated
ARID1A (RPPA) [15]: down-regulated
AXL, IGF-IRβ and VEGFR (RPPA) [16]: down-regulated
cell viability [17]: inhibited cell viability
